Article PMC9090415, “Discovery of small molecule inhibitors of Plasmodium falciparum apicoplast DNA polymerase” (Journal of Enzyme Inhibition and Medicinal Chemistry, 2022)

Molecular target: P. falciparum apicoplast DNA polymerase (Pf-apPOL) (Plasmodium falciparum, UniProt Q8ILY1)
Assay: Fluorescence-based high-throughput DNA polymerase assay (molecular beacon), primary screen and dose-response;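 as to % inhibition ApPOL 90': test concentration in µM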;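 as to % inhibition apPOL 180': test concentration in µM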
Assay type: biochemical
How it was run: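 Single-point screening used 10 µM compound with 20 nM polymerase, 20 nM hairpin substrate and 6 µM dNTPs for 90 min at 25 °C. Confirmatory titrations (2.5–80 µM) followed fluorescence at three times, and IC50 was derived from a fit including a cooperativity term n.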

[1] = 'DNA Pol' of the 186 hits list (primary screen result); unit not given; 90 min, 10 µM
[2] = DRC-2, 40', concentration 2.5 (unit not given)
[3] = DRC-2; 5'; concentration 5 (unit not given)
[4] = DRC-2; 90'; concentration 2.5 (unit not given)
[5] = primary screen value of the library well; unit not given; 90 min, 10 µM

Chain of P. falciparum apicoplast DNA polymerase (Pf-apPOL) (Q8ILY1 entry or part of it): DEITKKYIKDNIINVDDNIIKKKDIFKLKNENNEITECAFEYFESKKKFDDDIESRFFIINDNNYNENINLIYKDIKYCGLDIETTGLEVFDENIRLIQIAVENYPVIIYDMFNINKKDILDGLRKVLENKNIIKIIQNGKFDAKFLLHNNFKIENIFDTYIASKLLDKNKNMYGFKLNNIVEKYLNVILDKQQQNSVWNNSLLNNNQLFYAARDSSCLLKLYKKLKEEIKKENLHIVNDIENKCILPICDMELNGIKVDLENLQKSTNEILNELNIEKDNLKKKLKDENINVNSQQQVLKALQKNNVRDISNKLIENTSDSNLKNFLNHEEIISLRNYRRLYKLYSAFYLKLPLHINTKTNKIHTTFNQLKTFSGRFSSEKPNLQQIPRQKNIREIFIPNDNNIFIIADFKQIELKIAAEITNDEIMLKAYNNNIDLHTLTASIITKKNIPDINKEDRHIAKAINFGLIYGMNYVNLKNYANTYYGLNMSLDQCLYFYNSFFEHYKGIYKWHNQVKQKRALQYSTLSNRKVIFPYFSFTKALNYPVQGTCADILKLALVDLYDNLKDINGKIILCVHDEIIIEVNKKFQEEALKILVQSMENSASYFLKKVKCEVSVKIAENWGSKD

## COc1ccc(-c2c(C(F)(F)F)nn3c(=O)cc(-c4cccc([N+](=O)[O-])c4)[nH]c23)cc1 [Molecule 16, COc1ccc(cc1)c1c2[nH]c(cc(=O)n2nc1C(F)(F)F)c1cccc(c1)N(=O)=O]
[1]
  DNA Pol: 98
DRC-1; 10'; concentration 2.5
  % inhibition Apo pol 10': 21.756%
DRC-1; 10'; concentration 5
  % inhibition Apo pol 10': 31.6281%
DRC-1; 10'; concentration 10
  % inhibition Apo pol 10': 53.4209%
DRC-1; 10'; concentration 20
  % inhibition Apo pol 10': 92.9592%
DRC-1; 10'; concentration 40
  % inhibition Apo pol 10': 96.2671%
DRC-1; 10'; concentration 80
  % inhibition Apo pol 10': 97.8824%
DRC-1; 90'; concentration 2.5
  % inhibition Apol 90': 17.6214%
DRC-1; 90'; concentration 5
  % inhibition Apol 90': 24.4098%
DRC-1; 90'; concentration 10
  % inhibition Apol 90': 48.4616%
DRC-1; 90'; concentration 20
  % inhibition Apol 90': 90.3483%
DRC-1; 90'; concentration 40
  % inhibition Apol 90': 97.371%
DRC-1; 90'; concentration 80
  % inhibition Apol 90': 97.5048%
DRC-1; 180'; concentration 2.5
  % inhibition apPOL 180': 12.6653%
DRC-1; 180'; concentration 5
  % inhibition apPOL 180': 14.5865%
DRC-1; 180'; concentration 10
  % inhibition apPOL 180': 38.3358%
DRC-1; 180'; concentration 20
  % inhibition apPOL 180': 87.8097%
DRC-1; 180'; concentration 40
  % inhibition apPOL 180': 96.7933%
DRC-1; 180'; concentration 80
  % inhibition apPOL 180': 96.9215%
[2]
  % inhibition Apol 40': 13%
DRC-2, 40', concentration 40 (unit not given)
  % inhibition Apol 40': 75%
DRC-2, 90', concentration 5 (unit not given)
  % inhibition ApPOL 90': 14%
DRC-2, 180', concentration 20 (unit not given)
  % inhibition apPOL 180': 65%
DRC-2, 180', concentration 40 (unit not given)
  % inhibition apPOL 180': 75%
DRC-2; 5'; concentration 2.5
  % inhibition Apo pol 5': 10%
DRC-2; 5'; concentration 5
  % inhibition Apo pol 5': 14%
[3]
  % inhibition Apo pol 5': 14%
DRC-2; 5'; concentration 10
  % inhibition Apo pol 5': 28%
DRC-2; 5'; concentration 20
  % inhibition Apo pol 5': 58%
DRC-2; 5'; concentration 40
  % inhibition Apo pol 5': 62%
DRC-2; 5'; concentration 80
  % inhibition Apo pol 5': 65%
DRC-2; 5'; concentration 80 (unit not given)
  % inhibition Apo pol 5': 65%
DRC-2; 40'; concentration 2.5
  % inhibition Apol 40': 13%
DRC-2; 40'; concentration 5
  % inhibition Apol 40': 16%
DRC-2; 40'; concentration 10
  % inhibition Apol 40': 33%
DRC-2; 40'; concentration 20
  % inhibition Apol 40': 68%
DRC-2; 40'; concentration 40
  % inhibition Apol 40': 75%
DRC-2; 40'; concentration 80
  % inhibition Apol 40': 79%
DRC-2; 90'; concentration 2.5
  % inhibition ApPOL 90': 13%
[4]
  % inhibition ApPOL 90': 13%
DRC-2; 90'; concentration 5
  % inhibition ApPOL 90': 14%
DRC-2; 90'; concentration 10
  % inhibition ApPOL 90': 31%
DRC-2; 90'; concentration 20
  % inhibition ApPOL 90': 69%
DRC-2; 90'; concentration 40
  % inhibition ApPOL 90': 77%
DRC-2; 90'; concentration 80
  % inhibition ApPOL 90': 83%
DRC-2; 180'; concentration 2.5
  % inhibition apPOL 180': 9%
DRC-2; 180'; concentration 5
  % inhibition apPOL 180': 7.4%
DRC-2; 180'; concentration 10
  % inhibition apPOL 180': 23%
DRC-2; 180'; concentration 20
  % inhibition apPOL 180': 65%
DRC-2; 180'; concentration 40
  % inhibition apPOL 180': 75%
DRC-2; 180'; concentration 80
  % inhibition apPOL 180': 85%
[5]
  DNA Pol: 98

## O=C(Nc1nnc(-c2ccno2)o1)c1ccc2ncsc2c1 [Molecule 62]
Supplemental file 2, sheet IC50 nontoxic compounds; Pf-apPOL
  IC50: 14.2 µM

## COCCN(CCOC)Cc1c(O)ccc2c1OC(=Cc1cc(Br)ccc1OC)C2=O [KU0198471]
[1]
  DNA Pol: 63
DRC-1; 10'; concentration 2.5
  % inhibition Apo pol 10': -2.842%
DRC-1; 10'; concentration 5
  % inhibition Apo pol 10': 2.517%
DRC-1; 10'; concentration 10
  % inhibition Apo pol 10': 15.0312%
DRC-1; 10'; concentration 20
  % inhibition Apo pol 10': 43.5523%
DRC-1; 10'; concentration 40
  % inhibition Apo pol 10': 79.9378%
DRC-1; 10'; concentration 80
  % inhibition Apo pol 10': 100.142%
DRC-1; 90'; concentration 2.5
  % inhibition Apol 90': 0.2446%
DRC-1; 90'; concentration 5
  % inhibition Apol 90': 8.305%
DRC-1; 90'; concentration 10
  % inhibition Apol 90': 20.0345%
DRC-1; 90'; concentration 20
  % inhibition Apol 90': 57.0182%
DRC-1; 90'; concentration 40
  % inhibition Apol 90': 88.9313%
DRC-1; 90'; concentration 80
  % inhibition Apol 90': 100.102%
DRC-1; 180'; concentration 2.5
  % inhibition apPOL 180': 3.8606%
DRC-1; 180'; concentration 5
  % inhibition apPOL 180': 14.5947%
DRC-1; 180'; concentration 10
  % inhibition apPOL 180': 28.8657%
DRC-1; 180'; concentration 20
  % inhibition apPOL 180': 74.003%
DRC-1; 180'; concentration 40
  % inhibition apPOL 180': 99.2826%
DRC-1; 180'; concentration 80
  % inhibition apPOL 180': 101.453%
DRC-2, 5', concentration 2.5 (unit not given)
  % inhibition Apo pol 5': 10%
[2]
  % inhibition Apol 40': 10%
DRC-2; 5'; concentration 2.5
  % inhibition Apo pol 5': 10%
DRC-2; 5'; concentration 5
  % inhibition Apo pol 5': 10%
[3]
  % inhibition Apo pol 5': 10%
DRC-2; 5'; concentration 10
  % inhibition Apo pol 5': 33%
DRC-2; 5'; concentration 20
  % inhibition Apo pol 5': 48%
DRC-2; 5'; concentration 40
  % inhibition Apo pol 5': 59%
DRC-2; 5'; concentration 80
  % inhibition Apo pol 5': 60%
DRC-2; 40'; concentration 2.5
  % inhibition Apol 40': 10%
DRC-2; 40'; concentration 5
  % inhibition Apol 40': 6%
DRC-2; 40'; concentration 10
  % inhibition Apol 40': 36%
DRC-2; 40'; concentration 20
  % inhibition Apol 40': 53%
DRC-2; 40'; concentration 40
  % inhibition Apol 40': 73%
DRC-2; 40'; concentration 80
  % inhibition Apol 40': 79%
DRC-2; 90'; concentration 2.5
  % inhibition ApPOL 90': 10%
[4]
  % inhibition ApPOL 90': 10%
DRC-2; 90'; concentration 5
  % inhibition ApPOL 90': -0.305%
DRC-2; 90'; concentration 10
  % inhibition ApPOL 90': 34%
DRC-2; 90'; concentration 20
  % inhibition ApPOL 90': 52%
DRC-2; 90'; concentration 40
  % inhibition ApPOL 90': 75%
DRC-2; 90'; concentration 80
  % inhibition ApPOL 90': 82%
DRC-2; 180'; concentration 2.5
  % inhibition apPOL 180': 4.6%
DRC-2; 180'; concentration 5
  % inhibition apPOL 180': -68%
DRC-2; 180'; concentration 10
  % inhibition apPOL 180': 25%
DRC-2; 180'; concentration 20
  % inhibition apPOL 180': 41%
DRC-2; 180'; concentration 40
  % inhibition apPOL 180': 72%
DRC-2; 180'; concentration 80
  % inhibition apPOL 180': 85%
[5]
  DNA Pol: 63

## CCOC(=O)C(NCc1ccco1)(NC(=O)c1ccco1)C(F)(F)F (stereo not drawn) [KU0276119]
186 hits, value of the hit list (primary screen); unit not given; 90 min, 10 µM
  DNA Pol: 69
DRC-1; 10'; concentration 2.5
  % inhibition Apo pol 10': -0.8683%
DRC-1; 10'; concentration 5
  % inhibition Apo pol 10': 4.257%
DRC-1; 10'; concentration 10
  % inhibition Apo pol 10': 15.6994%
DRC-1; 10'; concentration 20
  % inhibition Apo pol 10': 30.4809%
DRC-1; 10'; concentration 40
  % inhibition Apo pol 10': 51.156%
DRC-1; 10'; concentration 80
  % inhibition Apo pol 10': 69.3233%
DRC-1; 90'; concentration 2.5
  % inhibition Apol 90': -1.328%
DRC-1; 90'; concentration 5
  % inhibition Apol 90': -2.247%
DRC-1; 90'; concentration 10
  % inhibition Apol 90': 3.449%
DRC-1; 90'; concentration 20
  % inhibition Apol 90': 14.6625%
DRC-1; 90'; concentration 40
  % inhibition Apol 90': 31.3437%
DRC-1; 90'; concentration 80
  % inhibition Apol 90': 52.4823%
DRC-1; 180'; concentration 2.5
  % inhibition apPOL 180': -2.149%
DRC-1; 180'; concentration 5
  % inhibition apPOL 180': -6.365%
DRC-1; 180'; concentration 10
  % inhibition apPOL 180': -5.1582%
DRC-1; 180'; concentration 20
  % inhibition apPOL 180': 2.395%
DRC-1; 180'; concentration 40
  % inhibition apPOL 180': 15.7005%
DRC-1; 180'; concentration 80
  % inhibition apPOL 180': 35.8359%
DRC-2, 5', concentration 2.5
  % inhibition Apo pol 5': 3%
DRC-2, 5', concentration 5
  % inhibition Apo pol 5': 8.49%
DRC-2, 5', concentration 10
  % inhibition Apo pol 5': 20%
DRC-2, 5', concentration 20
  % inhibition Apo pol 5': 31%
DRC-2, 5', concentration 40
  % inhibition Apo pol 5': 44%
DRC-2, 5', concentration 80
  % inhibition Apo pol 5': 52%
DRC-2, 40', concentration 2.5
  % inhibition Apol 40': 3%
DRC-2, 40', concentration 5
  % inhibition Apol 40': 5%
DRC-2, 40', concentration 10
  % inhibition Apol 40': 12%
DRC-2, 40', concentration 20
  % inhibition Apol 40': 24%
DRC-2, 40', concentration 40
  % inhibition Apol 40': 41%
DRC-2, 40', concentration 80
  % inhibition Apol 40': 57%
DRC-2, 90', concentration 2.5
  % inhibition ApPOL 90': 1.27%
DRC-2, 90', concentration 5
  % inhibition ApPOL 90': 0%
DRC-2, 90', concentration 10
  % inhibition ApPOL 90': 7%
DRC-2, 90', concentration 20
  % inhibition ApPOL 90': 17%
DRC-2, 90', concentration 40
  % inhibition ApPOL 90': 36%
DRC-2, 90', concentration 80
  % inhibition ApPOL 90': 54%
DRC-2, 180', concentration 2.5
  % inhibition apPOL 180': -2.49%
DRC-2, 180', concentration 5
  % inhibition apPOL 180': -7%
DRC-2, 180', concentration 10
  % inhibition apPOL 180': -2%
DRC-2, 180', concentration 20
  % inhibition apPOL 180': 2.7%
DRC-2, 180', concentration 40
  % inhibition apPOL 180': 21%
DRC-2, 180', concentration 80
  % inhibition apPOL 180': 45%
DRC-2; 5'; concentration 2.5
  % inhibition Apo pol 5': 3%
DRC-2; 40'; concentration 2.5
  % inhibition Apol 40': 3%
Primary screen value, 'DNA Pol' only; 90 min, 10 µM
  DNA Pol: 69
